Results from patent US8993542B2, “Methods of treating viral infections” (priority 2008, dated 2015).
Like-named read-outs stand apart in the source and are kept apart here.

Columns and labels:
[1] = Cytotoxicity (TC50) in PBMCs; assay type: cell-based; settings: PBMCs
PBMCs = test: Cytotoxicity (TC50) in PBMCs; assay type: cell-based
[2] = test system: CEM T-lymphocytic cells or MAGI-CCR5 cells; test: Cytotoxicity of two-drug combinations; settings: 10 μM highest test concentration
Experimental: The anti-HIV-1 activity of CMX157 is evaluated in two-drug combination studies with twenty-four different FDA-approved anti-HIV inhibitors. Each two-drug combination is tested three times in CEM T-lymphocytic cells or MAGI-CCR5 cells acutely infected with the laboratory-adapted strain HIV-1IIIB or HIV-1Ba-L, respectively. Viral growth/inhibition is evaluated by measuring virus-induced cytopathic effects (CPE) in CEM cells or by β-galactosidase reporter gene induction in MAGI-CCR5 cells at the experimental endpoint. The cytotoxicity of each two-drug combination is also evaluated in parallel with the antiviral evaluations. The concentrations of CMX157 used in these evaluations are selected in order to test a broad range of concentrations and to provide as complete a dose response curve as possible under the limitations of eight total concentrations. […] The “positive antagonism control” of d4T (stavudine) in combination with RBV was tested in parallel with each of the assays that were performed. Analysis of drug interactions for each of the two-drug combinations is performed using the Prichard and Shipman MacSynergy II three-dimensional model for statistical evaluation of combination assays.

HIV-1 Subtype Isolates = test: Activity against HIV-1 subtype isolates in PBMCs, RT endpoint; settings: for IC50: Human immunodeficiency virus 1, PBMC
HIV-1IIIB [3] = test: Association of compound with concentrated virus (LC/MS/MS of viral pellets); assay type: binding; settings: 500 nM, 2 hours
Experimental: To examine the potential of CMX157 to associate directly with virus, concentrated HIV-1IIIB (approximately 9.7×10^10 virus particles) is treated with 500 nM CMX157 or TFV for 2 hours. Following incubation, virus is pelleted to remove unbound compound, lysed with 70% ice cold methanol and centrifuged. Supernatants are analyzed in triplicate using LC/MS/MS (liquid chromatography/mass spectrometry). TFV, TFV mono- and diphosphate are separated by gradient, reverse phase, ion-paring chromatography and detected by positive ion electrospray. The levels of CMX157 associated with the viral pellets (≈37,000 molecules/virion) are much higher than the levels of TFV associated with viral pellets (≈100 molecules/virion).

HIV-1IIIB [4] = test: Two-drug combination antiviral assay in CEM cells (CPE), MacSynergy II; assay type: cell-based; settings: in combination with CMX157, CEM-SS cells, 95% confidence

CCCCCCCCCCCCCCCCOCCCOP(=O)(O)CO[C@H](C)Cn1cnc2c(N)ncnc21 [CMX157, Hexadecyloxypropyl-9-R-[2-(Phosphonomethoxy)Propyl]-Adenine]
CC50 ([1]; HIV-2 isolate CDC310319): > 1000 nM
CC50 ([1]; human, isolate ADA, subtype B, read-out: TC 50 (the source's name)): > 1000 nM
CC50 (PBMCs; HIV-2 isolate CBL-20): > 1000 nM
CC50 (PBMCs; HIV-2 isolate CDC310342): > 1000 nM
CC50 (PBMCs; isolate 96USHIPS7, subtype B, read-out: TC 50 (the source's name)): > 1000 nM
CC50 (PBMCs; isolate BCF01, subtype O, read-out: TC 50 (the source's name)): > 1000 nM
CC50 (PBMCs; isolate BCF02, subtype O, read-out: TC 50 (the source's name)): > 1000 nM
CC50 (PBMCs; isolate BCF03, subtype O, read-out: TC 50 (the source's name)): > 1000 nM
CC50 (PBMCs; isolate BR/92/014, subtype B, read-out: TC 50 (the source's name)): > 1000 nM
CC50 (PBMCs; isolate BR/92/025, subtype C, read-out: TC 50 (the source's name)): > 1000 nM
CC50 (PBMCs; isolate BR/93/019, subtype F, read-out: TC 50 (the source's name)): > 1000 nM
CC50 (PBMCs; isolate BR/93/020, subtype F, read-out: TC 50 (the source's name)): > 1000 nM
CC50 (PBMCs; isolate BR/93/029, subtype F, read-out: TC 50 (the source's name)): > 1000 nM
CC50 (PBMCs; isolate CMU06, subtype E, read-out: TC 50 (the source's name)): > 1000 nM
CC50 (PBMCs; isolate CMU08, subtype E, read-out: TC 50 (the source's name)): > 1000 nM
CC50 (PBMCs; isolate G3, subtype G, read-out: TC 50 (the source's name)): > 1000 nM
CC50 (PBMCs; isolate IN/93/101, subtype C, read-out: TC 50 (the source's name)): > 1000 nM
CC50 (PBMCs; isolate JR-CSF, subtype B, read-out: TC 50 (the source's name)): > 1000 nM
CC50 (PBMCs; isolate JV1083, subtype G, read-out: TC 50 (the source's name)): > 1000 nM
CC50 (PBMCs; isolate MW/93/959, subtype C, read-out: TC 50 (the source's name)): > 1000 nM
CC50 (PBMCs; isolate RU132, subtype G, read-out: TC 50 (the source's name)): > 1000 nM
CC50 (PBMCs; isolate RW/92/009, subtype A, read-out: TC 50 (the source's name)): > 1000 nM
CC50 (PBMCs; isolate TH/92/026, subtype B, read-out: TC 50 (the source's name)): > 1000 nM
CC50 (PBMCs; isolate TH/93/073, subtype E, read-out: TC 50 (the source's name)): > 1000 nM
CC50 (PBMCs; isolate UG/92/001, subtype D, read-out: TC 50 (the source's name)): > 1000 nM
CC50 (PBMCs; isolate UG/92/024, subtype D, read-out: TC 50 (the source's name)): > 1000 nM
CC50 (PBMCs; isolate UG/92/029, subtype A, read-out: TC 50 (the source's name)): > 1000 nM
CC50 (PBMCs; isolate UG/92/037, subtype A, read-out: TC 50 (the source's name)): > 1000 nM
CC50 (PBMCs; isolate UG/92/046, subtype D, read-out: TC 50 (the source's name)): > 1000 nM
synergistic cytotoxicity [2]: no evidence of synergistic cytotoxicity
IC50 (HIV-1 Subtype Isolates; read-out: IC50s against all major HIV subtypes, subtypes A-G, O and HIV-2, Tables 2 and 3): 0.2 to 7.2 nM
IC50 (HIV-1 Subtype Isolates; read-out: RT Endpoint IC50, isolate 96USHIPS7, subtype B): 4.8 nM
IC50 (HIV-1 Subtype Isolates; read-out: RT Endpoint IC50, isolate ADA, subtype B): 1.08 nM
IC50 (HIV-1 Subtype Isolates; read-out: RT Endpoint IC50, isolate BCF01, subtype O): 7.18 nM
IC50 (HIV-1 Subtype Isolates; read-out: RT Endpoint IC50, isolate BCF02, subtype O): 2.47 nM
IC50 (HIV-1 Subtype Isolates; read-out: RT Endpoint IC50, isolate BCF03, subtype O): 5.29 nM
IC50 (HIV-1 Subtype Isolates; read-out: RT Endpoint IC50, isolate BR/92/014, subtype B): 1.58 nM
IC50 (HIV-1 Subtype Isolates; read-out: RT Endpoint IC50, isolate BR/92/025, subtype C): 3.43 nM
IC50 (HIV-1 Subtype Isolates; read-out: RT Endpoint IC50, isolate BR/93/019, subtype F): 6.4 nM
IC50 (HIV-1 Subtype Isolates; read-out: RT Endpoint IC50, isolate BR/93/020, subtype F): 0.73 nM
IC50 (HIV-1 Subtype Isolates; read-out: RT Endpoint IC50, isolate BR/93/029, subtype F): 1.03 nM
IC50 (HIV-1 Subtype Isolates; read-out: RT Endpoint IC50, isolate CMU06, subtype E): 1.03 nM
IC50 (HIV-1 Subtype Isolates; read-out: RT Endpoint IC50, isolate CMU08, subtype E): 2.81 nM
IC50 (HIV-1 Subtype Isolates; read-out: RT Endpoint IC50, isolate G3, subtype G): 2.68 nM
IC50 (HIV-1 Subtype Isolates; read-out: RT Endpoint IC50, isolate IN/93/101, subtype C): 0.53 nM
IC50 (HIV-1 Subtype Isolates; read-out: RT Endpoint IC50, isolate JR-CSF, subtype B): 0.68 nM
IC50 (HIV-1 Subtype Isolates; read-out: RT Endpoint IC50, isolate JV1083, subtype G): 2.32 nM
IC50 (HIV-1 Subtype Isolates; read-out: RT Endpoint IC50, isolate MW/93/959, subtype C): 4.5 nM
IC50 (HIV-1 Subtype Isolates; read-out: RT Endpoint IC50, isolate RU132, subtype G): 1.63 nM
IC50 (HIV-1 Subtype Isolates; read-out: RT Endpoint IC50, isolate RW/92/009, subtype A): 1.75 nM
IC50 (HIV-1 Subtype Isolates; read-out: RT Endpoint IC50, isolate TH/92/026, subtype B): 0.44 nM
IC50 (HIV-1 Subtype Isolates; read-out: RT Endpoint IC50, isolate TH/93/073, subtype E): 2.95 nM
IC50 (HIV-1 Subtype Isolates; read-out: RT Endpoint IC50, isolate UG/92/001, subtype D): 5.16 nM
IC50 (HIV-1 Subtype Isolates; read-out: RT Endpoint IC50, isolate UG/92/024, subtype D): 0.3 nM
IC50 (HIV-1 Subtype Isolates; read-out: RT Endpoint IC50, isolate UG/92/029, subtype A): 5.84 nM
IC50 (HIV-1 Subtype Isolates; read-out: RT Endpoint IC50, isolate UG/92/037, subtype A): 2.3 nM
IC50 (HIV-1 Subtype Isolates; read-out: RT Endpoint IC50, isolate UG/92/046, subtype D): 0.96 nM
TI (TC50/IC50) (HIV-1 Subtype Isolates; isolate 96USHIPS7, subtype B): >208
TI (TC50/IC50) (HIV-1 Subtype Isolates; isolate ADA, subtype B): >925
TI (TC50/IC50) (HIV-1 Subtype Isolates; isolate BCF01, subtype O): >139
TI (TC50/IC50) (HIV-1 Subtype Isolates; isolate BCF02, subtype O): >405
TI (TC50/IC50) (HIV-1 Subtype Isolates; isolate BCF03, subtype O): >189
TI (TC50/IC50) (HIV-1 Subtype Isolates; isolate BR/92/014, subtype B): >633
TI (TC50/IC50) (HIV-1 Subtype Isolates; isolate BR/92/025, subtype C): >291
TI (TC50/IC50) (HIV-1 Subtype Isolates; isolate BR/93/019, subtype F): >156
TI (TC50/IC50) (HIV-1 Subtype Isolates; isolate BR/93/020, subtype F): >1,362
TI (TC50/IC50) (HIV-1 Subtype Isolates; isolate BR/93/029, subtype F): >972
TI (TC50/IC50) (HIV-1 Subtype Isolates; isolate CMU06, subtype E): >970
TI (TC50/IC50) (HIV-1 Subtype Isolates; isolate CMU08, subtype E): >356
TI (TC50/IC50) (HIV-1 Subtype Isolates; isolate G3, subtype G): >373
TI (TC50/IC50) (HIV-1 Subtype Isolates; isolate IN/93/101, subtype C): >1,892
TI (TC50/IC50) (HIV-1 Subtype Isolates; isolate JR-CSF, subtype B): >1,480
TI (TC50/IC50) (HIV-1 Subtype Isolates; isolate JV1083, subtype G): >431
TI (TC50/IC50) (HIV-1 Subtype Isolates; isolate MW/93/959, subtype C): >222
TI (TC50/IC50) (HIV-1 Subtype Isolates; isolate RU132, subtype G): >615
TI (TC50/IC50) (HIV-1 Subtype Isolates; isolate RW/92/009, subtype A): >571
TI (TC50/IC50) (HIV-1 Subtype Isolates; isolate TH/92/026, subtype B): >2,278
TI (TC50/IC50) (HIV-1 Subtype Isolates; isolate TH/93/073, subtype E): >339
TI (TC50/IC50) (HIV-1 Subtype Isolates; isolate UG/92/001, subtype D): >194
TI (TC50/IC50) (HIV-1 Subtype Isolates; isolate UG/92/024, subtype D): >3,346
TI (TC50/IC50) (HIV-1 Subtype Isolates; isolate UG/92/029, subtype A): >171
TI (TC50/IC50) (HIV-1 Subtype Isolates; isolate UG/92/037, subtype A): >435
TI (TC50/IC50) (HIV-1 Subtype Isolates; isolate UG/92/046, subtype D): >1,039

C[C@H](Cn1cnc2c(N)ncnc21)OCP(=O)(O)O [TFV, (R)-9-(2-phosphonylmethoxypropyl)adenine]
levels associated with the viral pellets (HIV-1IIIB [3]): ≈ 100 molecules/virion
Antagonism Volume, Result 1 (HIV-1IIIB [4]): −0.53 nM^2 %, μM^2 % or nMμM %
Antagonism Volume, Result 2 (HIV-1IIIB [4]): 0 nM^2 %, μM^2 % or nMμM %
Antagonism Volume, Result 3 (HIV-1IIIB [4]): 0 nM^2 %, μM^2 % or nMμM %
Mean Antagonism Volume (n = 3) (HIV-1IIIB [4]): −0.18 nM^2 %, μM^2 % or nMμM %
Mean Synergy Volume (n = 3) (HIV-1IIIB [4]): 28.4 nM^2 %, μM^2 % or nMμM %
Synergy Volume, Result 1 (HIV-1IIIB [4]): 17.6 nM^2 %, μM^2 % or nMμM %
Synergy Volume, Result 2 (HIV-1IIIB [4]): 37.2 nM^2 %, μM^2 % or nMμM %
Synergy Volume, Result 3 (HIV-1IIIB [4]): 30.3 nM^2 %, μM^2 % or nMμM %
